# Several values for one entry are separate records, joined by “and”; a condition that tells them apart may be missing. Equal values may be shown once. Read-outs that look alike come from different tables or passages of the source.
# Assays:
# α-synuclein fibrils = biological target: T1, α-synuclein fibrils (Homo sapiens, UniProt P37840); experiment: ThT competitive assay for α-synuclein fibrils (Table 1); format: binding; conditions: for EC50: α-synuclein fibrils
# T1 construct: made in house; host or cells: E. coli BL21(DE3)RIL
# Procedure: Upon binding to amyloid fibrils, a peak at approximately 440 nm becomes dominant with the fluorescent emission maximum shifted to 480 nm. This is accompanied by a strong enhancement of the fluorescence.
# α-Synuclein recombinant protein was produced in E. coli. […] Freshly transformed BL21 colonies were inoculated into 2 L baffled flasks containing 250 mL sterilized TB (1.2% bactotryptone, 2.4% yeast extract, 0.4% glycerol, 0.17 M KH2PO4, 0.72 M K2HPO4) with 50 μg/ml ampicillin, and incubated overnight at 37° C. with shaking.
# To determine the concentration of fibrils, the reaction mixture (100 μL) was centrifuged at 18,000×g for 10 minutes to separate fibrils from monomer. The α-synuclein monomer and other soluble proteins in the supernatant were removed, and the fibril pellet was resuspended in 100 μL solution of Tris-HCl (20 mM) and NaCl (100 mM). This fibril suspension was used in a bicinchoninic acid (BCA) protein assay along with a bovine serum albumin (BSA) standard curve to determine the concentration of fibrils in the 72 hour fibril reaction mixture.
# To prepare the fibrils for performing binding assays, the fibril reaction mixture prepared above was centrifuged at 18,000×g for 10 minutes.
# Once the ThT-α-synuclein saturation binding curve and dissociation constant (Kd) were determined the competitive assay for determining the binding affinity of various test compounds was conducted. […] The mixture was incubated at room temperature for 60 minutes on the shaking plate. The fluorescent intensity for each cell was measured by the fluorescence reader at λex and λem. The Ki value for each compound was calculated by the corresponding inhibition curve.
# The Ki values were derived from the EC50 values using the Cheng-Prusoff equation: Ki=EC50/(1+[radioligand]/Kd). See FIGS. 17.1-31.2 for the inhibition curves for each compound in the ThioT competitive binding assay.
# [1] = Biodistribution in male Balb/C mice; format: in vivo; conditions: for brain uptake and washout (assessment in words): 5 to 60 min post injection; for Biodistribution: Blood / Biodistribution: Brain / Biodistribution: Fat / Biodistribution: Heart / Biodistribution: Kidney / Biodistribution: Liver / Biodistribution: Lung / Biodistribution: Muscle / Biodistribution: Pancreas / Biodistribution: Spleen / Biodistribution: Bone: tail vein, mean ± SD, n = 4
# Procedure: For the biodistribution studies, 100˜130 μCi of [^11C] TZ-20-35 in ˜100 μL of 10% ethanol/saline solution (v/v) was injected via the tail vein into mature male Balb/C mice (19-24 g) under anesthesia (2.5% isoflurane in oxygen at a flow rate of 1 mL/min). A group of at least four […] were used for each time point. […] The whole brain was quickly harvested. At the same time, samples of blood, heart, lung, liver, spleen, pancreas, kidney, muscle, fat, and tail were dissected. All the tissue samples were collected in tared tubes and counted in an automated gamma counter (Beckman Gamma 8000 well counter) with standards, prepared by diluting the injectate. The counted tissues were then weighed, and the % ID/g was calculated (Table 4).
# [2] = average, read-out: Ki (nM) α-syn (avg)
# [3] = individual determinations, read-out: Ki (nM) α-syn
structure (smiles),measurement,setting,value
COc1ccc2nc(/C=C/c3ccco3)ccc2c1 [TZ-36-52],Ki,α-synuclein fibrils; [2],316 nM
same,Ki,α-synuclein fibrils; [3],316 nM
same,EC50,"α-synuclein fibrils; average, read-out: EC50 (nM) EC50 (avg)",827 nM
same,EC50,"α-synuclein fibrils; individual determinations, read-out: EC50 (nM) EC50",827 nM
COc1ccc(/C=C/c2ccc(-c3nccs3)s2)cc1 [TZ-37-96],Ki,α-synuclein fibrils; [2],98.5 nM
same,Ki,α-synuclein fibrils; [3],102 nM and 95 nM
COC(=O)c1ccc(/C=C/c2ccncc2)cc1 [[^11C]TZ-20-35],brain uptake and washout (assessment in words),[1],Brain uptake and the washout kinetics were very good
same,Biodistribution: Blood,[1]; 5 min post injection,5.21 ± 0.20 % ID/g
same,Biodistribution: Brain,[1]; 5 min post injection,5.71 % ID/g and 5.71 ± 0.44 % ID/g
same,Biodistribution: Fat,[1]; 5 min post injection,0.90 ± 0.42 % ID/g
same,Biodistribution: Heart,[1]; 5 min post injection,4.72 ± 0.34 % ID/g
same,Biodistribution: Kidney,[1]; 5 min post injection,4.73 ± 0.41 % ID/g
same,Biodistribution: Liver,[1]; 5 min post injection,4.25 ± 0.36 % ID/g
same,Biodistribution: Lung,[1]; 5 min post injection,4.78 ± 0.21 % ID/g
same,Biodistribution: Muscle,[1]; 5 min post injection,4.06 ± 0.13 % ID/g
same,Biodistribution: Pancreas,[1]; 5 min post injection,3.64 ± 0.44 % ID/g
same,Biodistribution: Spleen,[1]; 5 min post injection,4.60 ± 0.16 % ID/g
same,organ recovery,[1]; 30 min post injection,52%
same,Biodistribution: Blood,[1]; 30 min post injection,2.79 ± 0.43 % ID/g
same,Biodistribution: Brain,[1]; 30 min post injection,2.43 % ID/g and 2.43 ± 0.41 % ID/g
same,Biodistribution: Fat,[1]; 30 min post injection,0.86 ± 0.07 % ID/g
same,Biodistribution: Heart,[1]; 30 min post injection,2.61 ± 0.54 % ID/g
same,Biodistribution: Kidney,[1]; 30 min post injection,4.43 ± 0.42 % ID/g
same,Biodistribution: Liver,[1]; 30 min post injection,8.72 ± 0.37 % ID/g
same,Biodistribution: Lung,[1]; 30 min post injection,2.94 ± 0.38 % ID/g
same,Biodistribution: Muscle,[1]; 30 min post injection,2.25 ± 0.33 % ID/g
same,Biodistribution: Pancreas,[1]; 30 min post injection,3.54 ± 0.90 % ID/g
same,Biodistribution: Spleen,[1]; 30 min post injection,3.44 ± 0.23 % ID/g
same,organ recovery,[1]; 60 min post injection,34%
same,Biodistribution: Blood,[1]; 60 min post injection,1.75 ± 0.25 % ID/g
same,Biodistribution: Brain,[1]; 60 min post injection,1.68 % ID/g and 1.68 ± 0.26 % ID/g
same,Biodistribution: Fat,[1]; 60 min post injection,0.58 ± 0.09 % ID/g
same,Biodistribution: Heart,[1]; 60 min post injection,1.80 ± 0.18 % ID/g
same,Biodistribution: Kidney,[1]; 60 min post injection,4.23 ± 0.47 % ID/g
same,Biodistribution: Liver,[1]; 60 min post injection,10.17 ± 1.08 % ID/g
same,Biodistribution: Lung,[1]; 60 min post injection,2.21 ± 0.44 % ID/g
same,Biodistribution: Muscle,[1]; 60 min post injection,1.18 ± 0.10 % ID/g
same,Biodistribution: Pancreas,[1]; 60 min post injection,5.42 ± 1.25 % ID/g
same,Biodistribution: Spleen,[1]; 60 min post injection,3.30 ± 0.36 % ID/g
COc1ccc(NC(=O)c2ccc(/C=C/c3ccncc3)cc2)cc1 [[^11C]TZ-20-83],brain uptake and washout (assessment in words),[1],brain uptake and washout aren't significant
same,Biodistribution: Blood,[1]; 5 min post injection,1.93 ± 0.15 % ID/g
same,Biodistribution: Brain,[1]; 5 min post injection,1.93 % ID/g and 1.93 ± 0.29 % ID/g
same,Biodistribution: Fat,[1]; 5 min post injection,1.94 ± 0.20 % ID/g
same,Biodistribution: Heart,[1]; 5 min post injection,2.31 ± 0.37 % ID/g
same,Biodistribution: Kidney,[1]; 5 min post injection,17.55 ± 2.61 % ID/g
same,Biodistribution: Liver,[1]; 5 min post injection,37.98 ± 3.78 % ID/g
same,Biodistribution: Lung,[1]; 5 min post injection,11.22 ± 0.59 % ID/g
same,Biodistribution: Muscle,[1]; 5 min post injection,1.18 ± 0.24 % ID/g
same,Biodistribution: Pancreas,[1]; 5 min post injection,3.09 ± 0.39 % ID/g
same,Biodistribution: Spleen,[1]; 5 min post injection,18.77 ± 3.38 % ID/g
same,organ recovery,[1]; 30 min post injection,58%
same,Biodistribution: Blood,[1]; 30 min post injection,1.59 ± 0.42 % ID/g
same,Biodistribution: Brain,[1]; 30 min post injection,1.63 % ID/g and 1.63 ± 0.33 % ID/g
same,Biodistribution: Fat,[1]; 30 min post injection,1.73 ± 0.36 % ID/g
same,Biodistribution: Heart,[1]; 30 min post injection,1.79 ± 0.35 % ID/g
same,Biodistribution: Kidney,[1]; 30 min post injection,9.98 ± 1.76 % ID/g
same,Biodistribution: Liver,[1]; 30 min post injection,17.94 ± 3.86 % ID/g
same,Biodistribution: Lung,[1]; 30 min post injection,4.10 ± 0.96 % ID/g
same,Biodistribution: Muscle,[1]; 30 min post injection,1.17 ± 0.23 % ID/g
same,Biodistribution: Pancreas,[1]; 30 min post injection,5.10 ± 1.09 % ID/g
same,Biodistribution: Spleen,[1]; 30 min post injection,3.49 ± 0.84 % ID/g
same,organ recovery,[1]; 60 min post injection,38%
same,Biodistribution: Blood,[1]; 60 min post injection,1.56 ± 0.12 % ID/g
same,Biodistribution: Brain,[1]; 60 min post injection,1.25 % ID/g and 1.25 ± 0.11 % ID/g
same,Biodistribution: Fat,[1]; 60 min post injection,1.05 ± 0.22 % ID/g
same,Biodistribution: Heart,[1]; 60 min post injection,1.48 ± 0.05 % ID/g
same,Biodistribution: Kidney,[1]; 60 min post injection,5.82 ± 0.47 % ID/g
same,Biodistribution: Liver,[1]; 60 min post injection,13.36 ± 1.75 % ID/g
same,Biodistribution: Lung,[1]; 60 min post injection,2.93 ± 0.22 % ID/g
same,Biodistribution: Muscle,[1]; 60 min post injection,0.92 ± 0.14 % ID/g
same,Biodistribution: Pancreas,[1]; 60 min post injection,6.96 ± 0.51 % ID/g
same,Biodistribution: Spleen,[1]; 60 min post injection,3.21 ± 0.76 % ID/g
O=C(Nc1ccc(OCC[18F])cc1)c1ccc(/C=C/c2ccncc2)cc1 [[^18F]TZ-23-88],Biodistribution: Blood,[1]; 5 min post injection,2.50 ± 0.13 % ID/g
same,Biodistribution: Bone,[1]; 5 min post injection,4.07 % ID/g and 4.07 ± 0.50 % ID/g
same,Biodistribution: Brain,[1]; 5 min post injection,4.59 % ID/g and 4.69 ± 0.70 % ID/g
same,Biodistribution: Fat,[1]; 5 min post injection,2.43 ± 0.42 % ID/g
same,Biodistribution: Heart,[1]; 5 min post injection,4.82 ± 0.47 % ID/g
same,Biodistribution: Kidney,[1]; 5 min post injection,35.67 ± 1.48 % ID/g
same,Biodistribution: Liver,[1]; 5 min post injection,16.30 ± 3.53 % ID/g
same,Biodistribution: Lung,[1]; 5 min post injection,8.50 ± 0.60 % ID/g
same,Biodistribution: Muscle,[1]; 5 min post injection,2.60 ± 0.19 % ID/g
same,Biodistribution: Pancreas,[1]; 5 min post injection,4.91 ± 0.68 % ID/g
same,Biodistribution: Spleen,[1]; 5 min post injection,3.12 ± 0.12 % ID/g
same,Biodistribution: Blood,[1]; 30 min post injection,2.30 ± 0.05 % ID/g
same,Biodistribution: Bone,[1]; 30 min post injection,28.50 % ID/g and 28.50 ± 2.81 % ID/g
same,Biodistribution: Brain,[1]; 30 min post injection,4.07 % ID/g and 4.07 ± 0.21 % ID/g
same,Biodistribution: Fat,[1]; 30 min post injection,1.70 ± 0.17 % ID/g
same,Biodistribution: Heart,[1]; 30 min post injection,2.23 ± 0.06 % ID/g
same,Biodistribution: Kidney,[1]; 30 min post injection,15.72 ± 1.06 % ID/g
same,Biodistribution: Liver,[1]; 30 min post injection,19.56 ± 0.97 % ID/g
same,Biodistribution: Lung,[1]; 30 min post injection,2.57 ± 0.15 % ID/g
same,Biodistribution: Muscle,[1]; 30 min post injection,1.35 ± 0.04 % ID/g
same,Biodistribution: Pancreas,[1]; 30 min post injection,3.02 ± 0.19 % ID/g
same,Biodistribution: Spleen,[1]; 30 min post injection,1.59 ± 0.08 % ID/g
same,Biodistribution: Blood,[1]; 60 min post injection,1.28 ± 0.06 % ID/g
same,Biodistribution: Bone,[1]; 60 min post injection,42.68 % ID/g and 42.68 ± 1.69 % ID/g
same,Biodistribution: Brain,[1]; 60 min post injection,3.21 % ID/g and 3.21 ± 0.14 % ID/g
same,Biodistribution: Fat,[1]; 60 min post injection,0.69 ± 0.10 % ID/g
same,Biodistribution: Heart,[1]; 60 min post injection,1.23 ± 0.05 % ID/g
same,Biodistribution: Kidney,[1]; 60 min post injection,5.59 ± 0.29 % ID/g
same,Biodistribution: Liver,[1]; 60 min post injection,10.71 ± 0.80 % ID/g
same,Biodistribution: Lung,[1]; 60 min post injection,1.31 ± 0.07 % ID/g
same,Biodistribution: Muscle,[1]; 60 min post injection,0.75 ± 0.07 % ID/g
same,Biodistribution: Pancreas,[1]; 60 min post injection,1.84 ± 0.33 % ID/g
same,Biodistribution: Spleen,[1]; 60 min post injection,0.90 ± 0.07 % ID/g
same,Biodistribution: Blood,[1]; 120 min post injection,0.70 ± 0.05 % ID/g
same,Biodistribution: Bone,[1]; 120 min post injection,49.39 % ID/g and 49.39 ± 8.21 % ID/g
same,Biodistribution: Brain,[1]; 120 min post injection,2.37 % ID/g and 2.37 ± 0.14 % ID/g
same,Biodistribution: Fat,[1]; 120 min post injection,0.23 ± 0.12 % ID/g
same,Biodistribution: Heart,[1]; 120 min post injection,0.71 ± 0.12 % ID/g
same,Biodistribution: Kidney,[1]; 120 min post injection,1.94 ± 0.29 % ID/g
same,Biodistribution: Liver,[1]; 120 min post injection,5.59 ± 0.39 % ID/g
same,Biodistribution: Lung,[1]; 120 min post injection,0.71 ± 0.09 % ID/g
same,Biodistribution: Muscle,[1]; 120 min post injection,0.55 ± 0.21 % ID/g
same,Biodistribution: Pancreas,[1]; 120 min post injection,0.98 ± 0.10 % ID/g
same,Biodistribution: Spleen,[1]; 120 min post injection,0.47 ± 0.04 % ID/g
same,crossing of the blood brain barrier,[1]; judged from brain uptake at 5 min,can cross the blood brain barrier and enter the brain
same,defluorination,[1]; judged from increasing bone uptake in the mice,strong defluorination

# Source: patent US10300155B2, “Alpha-synuclein ligands” (Washington University, priority 2015, dated 2019)
